Test results: patent US11518760B2 (Liverpool School of Tropical Medicine, priority 2017, dated 2022)

What follows are molecules tested on C6/36 Aedes albopictus cell line infected with Wolbachia pipientis (Wolbachia strain wAlbB) (assay: In vitro insect cell line assay (anti-Wolbachia screen, SYTO 11 high content imaging)). Details: 168 h; C6/36 Aedes albopictus cells infected with Wolbachia pipientis wAlbB, 7 days incubation, SYTO 11 imaging; read-out: In vitro anti-Wolbachia activity.
Type: cell-based
Summary of the method: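 Wolbachia wAlbB-infected C6/36 Aedes albopictus cells were exposed to compounds at a final 5 μM for 7 days at 26 °C, with DMSO-medium wells as untreated controls. Cells were then stained with SYTO 11 for 15 min, imaged by high-content microscopy and scored by texture analysis.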

Row | Structure (SMILES) | EC50 [nM]
1 | FC(F)(F)c1ccccc1CNc1nc(N2CCOCC23CCCC3)nc2ncccc12 [Example 286, 2-(9-oxa-6-azaspiro[4.5]decan-6-yl)-N-(2-(trifluoromethyl)benzyl)pyrido[2,3-d]pyrimidin-4-amine] | 100 to 1000
2 | CC(C)N(C)c1nc(N(C)Cc2cccnc2C(F)(F)F)c2cccnc2n1 [Example 161, N^2-isopropyl-N^2,N^4-dimethyl-N^4-((2-(trifluoromethyl)pyridin-3-yl)methyl)pyrido[2,3-d]pyrimidine-2,4-diamine] | 1 to 10
3 | CC(C)Nc1nc(NCc2ccc(F)cc2)c2ccccc2n1 [Example 134, N^4-(4-fluorobenzyl)-N^2-isopropylquinazoline-2,4-diamine] | 1000 to 100000
4 | FC(F)(F)c1ccccc1CNc1ncnc2ccsc12 [Example 23, N-(2-(trifluoromethyl)benzyl)thieno[3,2-d]pyrimidin-4-amine] | 10 to 100
5 | CC1(C)CN(c2nc(NCc3cccnc3C(F)(F)F)c3cccnc3n2)CCO1 [Example 239, 2-(2,2-dimethylmorpholino)-N-((2-(trifluororoethyl)pyridin-3-yl)methyl)pyrido[2,3-d]pyrimidin-4-amine] | 0.01 to 1
6 | CC(C)Nc1nc(NCc2ccc(S(C)(=O)=O)cc2)c2cccnc2n1 [Example 128, N^2-isopropyl-N^4-(4-(methylsulfonyl)benzyl)pyrido[2,3-d]pyrimidine-2,4-diamine] | 100 to 1000
7 | C[C@H]1COCCN1c1nc(NCc2cccnc2C(F)(F)F)c2cccnc2n1 [Example 210, (S)-2-(3-methylmorpholino)-N-((2-(trifluoromethyl)pyridin-3-yl)methyl)pyrido[2,3-d]pyrimidin-4-amine] | 1 to 10
8 | CC(C)Nc1nc(NCc2cccnc2C(F)(F)F)c2cccnc2n1 [Example 150, N^2-isopropyl-N^4-((2-(trifluoromethyl)pyridin-3-yl)methyl)pyrido[2,3-d]pyrimidine-2,4-diamine] | 10 to 100
9 | CC(C)Nc1nc(NCc2ccc(C(F)(F)F)nc2)c2ccccc2n1 [Example 114, N^2-isopropyl-N^4-((6-(trifluoromethyl)pyridin-3-yl)methyl)quinazoline-2,4-diamine] | 100 to 1000
10 | CC1(C)CCN1c1nc(NCc2cccnc2C(F)(F)F)c2cccnc2n1 [Example 173, 2-(2,2-dimethylazetidin-1-yl)-N-((2-(trifluoromethyl)pyridin-3-yl)methyl)pyrido[2,3-d]pyrimidin-4-amine] | 1 to 10
11 | FC(F)(F)c1ncccc1CNc1nc(N2CCC2)nc2ncccc12 [Example 163, 2-(azetidin-1-yl)-N-((2-(trifluoromethyl)pyridin-3-yl)methyl)pyrido[2,3-d]pyrimidin-4-amine] | 10 to 100
12 | FC(F)C1CN(c2nc(NCc3cccnc3C(F)(F)F)c3cccnc3n2)C1 [Example 274, 2-(3-(difluoromethyl)azetidin-1-yl)-N-((2-(trifluoromethyl)pyridin-3-yl)methyl)pyrido[2,3-d]pyrimidin-4-amine] | 1 to 10
13 | FC(F)(F)c1ncccc1C1CCN1c1nc(N2CCC(Cl)CC2)nc2ncccc12 (stereo not drawn) [Example 217, 2-(4-chloropiperidin-1-yl)-4-(2-(2-(trifluoromethyl)pyridin-3-yl)azetidin-1-yl)pyrido[2,3-d]pyrimidine] | < 0.01
14 | FC1CCN(c2nc(NCc3cccnc3C(F)(F)F)c3cccnc3n2)C1 (stereo not drawn) [Example 242, 2-(3-fluoropyrrolidin-1-yl)-N-((2-(trifluoromethyl)pyridin-3-yl)methyl)pyrido[2,3-a]pyrimidin-4-amine] | 1 to 10
15 | CC(C)Nc1nc(NCc2ccc(S(C)(=O)=O)cc2)c2sccc2n1 [Example 118, N^2-isopropyl-N^4-(4-(methylsuifonyl)benzyl)thieno[3,2-d]pyrimidine-2,4-diamine] | 1000 to 100000
16 | FC(F)Sc1nc(NCc2cccnc2C(F)(F)F)c2cccnc2n1 [Example 191, 2-((difluoromethyl)thio)-N-((2-(trifluoromethyl)pyridin-3-yl)methyl)pyrido[2,3-d]pyrimidin-4-amine] | 100 to 1000
17 | FC(F)(F)c1ncccc1CNc1nc(N2CCCC(C(F)(F)F)C2)nc2ncccc12 (stereo not drawn) [Example 249, 2-(3-(trifluoromethyl)piperidin-1-yl)-N-((2-(trifluoromethyl)pyridin-3-yl)methyl)pyrido[2,3-d]pyrimidin-4-amine] | < 0.01
18 | Cc1ccc(Nc2ncnc3ccsc23)c(C)c1 [Example 31, N-(2,4-dimethylphenyl)thieno[3,2-d]pyrimidin-4-amine] | 1000 to 100000
19 | Fc1ccccc1CNc1ncnc2ccsc12 [Example 22, N-(2-fluorobenzyl)thieno[3,2-d]pyrimidin-4-amine] | 1000 to 100000
20 | CC(C)Nc1nc(NCc2c(F)cccc2Cl)c2sccc2n1 [Example 30, N^4-(2-chloro-6-fluorobenzyl)-N^2-isopropylthieno[3,2-d]pyrimidine-2,4-diamine] | 100 to 1000
21 | CN(Cc1ccc(F)cc1C(F)(F)F)c1ncnc2ccccc12 [Example 75, N-(4-fluoro-2-(trifluoromethyl)benzyl)-N-methylquinazolin-4-amine] | 100 to 1000

Row | Structure (SMILES) | EC50 [nM]
22 | CC(C)N(C)c1nc(NCc2ccccc2Cl)c2sccc2n1 [Example 33, N^4-(2-chlorobenzyl)-N^2-isopropyl-N^2-methylthieno[3,2-d]pyrimidine-2,4-diamine] | 100 to 1000
23 | CCNC(=O)Nc1nc(NCc2cccnc2C(F)(F)F)c2cccnc2n1 [Example 207, 1-ethyl-3-(4-(((2-(trifluoromethyl)pyridin-3-yl)methyl)amino)pyrido[2,3-d]pyrimidin-2-yl)urea] | 100 to 1000
24 | CNc1nc(NCc2cccnc2C(F)(F)F)c2cccnc2n1 [Example 149, N^2-methyl-N^4-((2-(trifluoromethyl)pyridin-3-yl)methyl)pyrido[2,3-d]pyrimidine-2,4-diamine] | 100 to 1000
25 | CC1COCCN1c1nc(NCc2cccnc2C(F)(F)F)c2cncnc2n1 (stereo not drawn) [Example 306, 2-(3-methylmorpholino)-N-((2-(trifluoromethyl)pyridin-3-yl)methyl)pyrimido[4,5-d]pyrimidin-4-amine] | 1000 to 100000
26 | NC(=O)c1nc(NCc2ccccc2C(F)(F)F)c2cccnc2n1 [Example 146, 4-((2-(trifluoromethyl)benzyl)amino)pyrido[2,3-d]pyrimidine-2-carboxamide] | 1000 to 100000
27 | FC(F)(F)c1ccccc1C1CCN1c1nc(N2CCC(Cl)CC2)nc2ncccc12 (stereo not drawn) [Example 212, 2-(4-chloropiperidin-1-yl)-4-(2-(2-(trifluoromethyl)phenyl)azetidin-1-yl)pyrido[2,3-d]pyrimidine] | 100 to 1000
28 | C[C@@H]1COCCN1c1nc(N2CCC2c2ccccc2C(F)(F)F)c2cccnc2n1 (stereo partly drawn) [Example 290, (3R)-3-methyl-4-(4-(2-(2-(trifluoromethyl)phenyl)azetidin-1-yl)pyrido[2,3-d]pyrimidin-2-yl)morpholine] | 0.01 to 1
29 | CC(C)Nc1cc(NCc2cccnc2C(F)(F)F)c2cccnc2n1 [Example 165, N^2-isopropyl-N^4-((2-(trifluoromethyl)pyridin-3-yl)methyl)-1,8-naphthyridine-2,4-diamine] | 10 to 100
30 | N#CC1CCCN(c2nc(NCc3cccnc3C(F)(F)F)c3cccnc3n2)C1 (stereo not drawn) [Example 251] | 1 to 10
31 | N#Cc1ccccc1CNc1nc(Cl)nc2ccsc12 [Example 104, 2-(((2-chlorothieno[3,2-d]pyrimidin-4-yl)amino)methyl)benzonitrile] | 100 to 1000
32 | O=C(Nc1ncnc2ccsc12)c1ccccc1C(F)(F)F [Example 37, N-(thieno[3,2-d]pyrimidin-4-yl)-2-(trifluoromethyl)benzamide] | 1000 to 100000
33 | COc1cc2c(NCc3cccnc3C(F)(F)F)nc(N3CCOCC3C)nc2nc1OC (stereo not drawn) [Example 308, 6,7-dimethoxy-2-(3-methylmorphoIino)-N-((2-(trifluoromethyl)pyridin-3-yl)methyl)pyrido[2,3-d]pyrimidin-4-amine] | 1000 to 100000
34 | CC(C)N(C)c1nc(N2CCC2c2ccccc2C(F)(F)F)c2cccnc2n1 (stereo not drawn) [Example 184, N-isopropyl-N-methyl-4-(2-(2-(trifluoromethyl)phenyl)azetidin-1-yl)pyrido[2,3-d]pyrimidin-2-amine] | 0.01 to 1
35 | CC(Nc1nc(Cl)nc2ccsc12)c1ccccc1C(F)(F)F (stereo not drawn) [Example 52, 2-chloro-N-(1-(2-(trifluoromethyl)phenyl)ethyl)thieno[3,2-d]pyrimidin-4-amine] | 10 to 100
36 | CC(C)Nc1nc(NCc2ccc(C#N)cc2)c2cccnc2n1 [Example 126, N^4-(4-cyanobenzyl)-N^2-isopropylpyrido[2,3-d]pyrimidine-2,4-diamine] | 100 to 1000
37 | FC1(F)CC2(CCN(c3nc(NCc4ccccc4C(F)(F)F)c4cccnc4n3)CC2)C1 [Example 260, 2-(2,2-difluoro-7-azaspiro[3.5]nonan-7-yl)-N-(2-(trifluoromethyl)benzyl)pyrido[2,3-d]pyrimidin-4-amine] | 1 to 10
38 | FC(F)(F)c1ncccc1CNc1nc(N2CCOC(C3CC3)C2)nc2ncccc12 (stereo not drawn) [Example 278, 2-(2-cyclopropylmorpholino)-N-((2-(trifluoromethyl)pyridin-3-yl)methyl)pyrido[2,3-d]pyrimidin-4-amine] | 0.01 to 1
39 | FC(F)(F)c1ncccc1CNc1nc(NC2CNC2)nc2ncccc12 [Example 147, N^2-(azetidin-3-yl)-N^4-((2-(trifluoromethyl)pyridin-3-yl)methyl)pyrido[2,3-d]pyrimidine-2,4-diamine] | 1000 to 100000
40 | Cc1nc(N(C)C(C)c2ccccc2C(F)(F)F)c2sc(C=O)cc2n1 (stereo not drawn) [Example 77] | 100 to 1000
41 | CC1CCN1c1nc(NCc2cccnc2C(F)(F)F)c2cccnc2n1 (stereo not drawn) [Example 172, 2-(2-methylazetidin-1-yl)-N-((2-(trifluoromethyl)pyridin-3-yl)methyl)pyrido[2,3-d]pyrimidin-4-amine] | 0.01 to 1
42 | O=C1CCCN1CCCNc1nc(NCc2ccccc2C(F)(F)F)c2sccc2n1 [Example 88, 1-(3-((4-((2-(trifluoromethyl)benzyl)amino)thieno[3,2-d]pyrimidin-2-yl)amino)propyl)pyrrolidin-2-one] | 1000 to 100000
